As usually defined, the pIC50 is the negative decadic logarithm of the IC50, by convention in mol/L.

Here are results for 1 molecule from patent publication US9808477B2 (Macau University of Science and Technology, priority 2015, dated 2017).

Each structure is given as a SMILES string. pEC50, pIC50: −log10 of the molar value.

Experiment [1] has as its system A2780/T cells (PTX-resistant, ABCB1-overexpressing ovarian cancer cells). Kind of experiment: cells. Type of experiment: cell-based, human. To be noted: Homo sapiens, A2780, 48 h, A2780/T, 48 h, SRB, drug alone (no nobiletin); read-out: IC50 ± SD. The protocol: Sulphorhodamine B (SRB) assays were used for cell density determination, based on sensitive measure of total cellular protein, which perform similarly compared with other proliferation assays such as MTT assay. Briefly, cells were seeded into flat bottomed 96-well plates at an initial density of 7.5×10^3 per well before treatment. […] After removing the medium, cells were fixed in 10% trichloroacetic acid for 1 h at 4° C. and then washed with water five times. 0.4% SRB dissolved in 1% v/v acetic acid was added and incubated […] for staining. The cells were quickly washed with 1% acetic acid and left to dry overnight. The protein bound SRB was solubilized by adding 200 μl 10 mM Tris buffer per well and was measured at wavelengths 490 nm using a plate reader (Spectra MAX 250; Molecular Devices, Sunnyvale, Calif.). The optical density of SRB in each well is directly proportional to the cell number.

Another experiment deals with A2780/T cells. Kind of experiment: Combination index, Chou-Talalay method (CalcuSyn). Type of experiment: cell-based, human.
Experiment [2] relates to MDR1 mRNA in A2780/T cells. Description: RT-PCR analysis of MDR1 mRNA. Particulars: nobiletin at concentrations used in reversal assays, 48 h. The experiment is classed as cell-based, human. The protocol: RT-PCR was performed to evaluate MDR1 mRNA expression. mRNA from cell lysates were purified by binding to poly(dT) magnetic beads (Life technologies) and reverse transcribed by using SuperScript II (Life technologies). Standard quantitative RT-PCR was performed in duplicates at least two to three times by using SYBR Green (Molecular Probes) protocols on the ViiA™ 7 Real-Time PCR System (Life technologies). The primer sequences: 5′-[…]-3′ (SEQ ID NO:1) and 3′-[…]-5′ (SEQ ID NO:2) for MDR1, and 5′-[…]-3′ (SEQ ID NO:3) and 3′-[…]-[…]-5′ (SEQ ID NO:4) for control gene eukaryotic translation initiation factor (TIF). RT-PCR data were normalized by measuring average cycle threshold (Ct) ratios between candidate genes and control gene TIF.

In experiment [3] the test system is ABCB1 transfected cell line LLC-GA5-COL300. Particulars: nobiletin 20 μM; cited from earlier work.

In the case of `COc1ccc(-c2cc(=O)c3c(OC)c(OC)c(OC)c(OC)c3o2)cc1OC` [nobiletin], the pIC50 in experiment [1] was 4.50. For the same molecule, the pEC50 with A2780/T cells (Homo sapiens, A2780, read-out: Dose N at Fa = 0.5 (ED50), CalcuSyn simulation, A2780/T, nobiletin dose, alone or in the combination) is 4.44. Further, the “decrease of the ED50 dose of PTX” value with A2780/T cells (combination with 0.286 μM nobiletin, A2780/T) was 200 fold. Further, the “expression of MDR1 mRNA” value in experiment [2] was “did not significantly alter”. For the same molecule, the “increase of uptake of [3H] vinblastine” value in experiment [3] is 1.8 fold.
